Where two headings read alike, the source gives them in different places.
Experiments:
[1] = tested on: panel of 6 selected human cancer cell lines (LXFL 1674L, SW-620, CAL-27, RKO, MDA-MB-468, SK-OV-3); test: IC50 determination in a panel of tumor cell lines (CellTiter-Blue Cell Viability assay); type: cell-based
Procedure: Samples were provided to Charles River Discovery Research Services Germany GmbH as frozen stock solutions in pharmaceutical grade DMSO (Sigma-Aldrich, Taufkirchen, Germany). On each day of the experiment, a frozen aliquot of stock solution was thawed. Subsequent serial dilutions were realized with complete RPMI 1640 cell culture medium using an intermediate dilution plate. 10 μL taken from the intermediate dilution plate were then transferred to 140 μL/well of the cell culture plate. Cells were treated with the test compounds at 10 concentrations in triplicate in half-log steps from 0.003 nM to 100 nM for a period of 96 h.
The compounds were tested in a panel of 6 selected human cancer cell lines by using CellTiter-Blue® Cell Viability assay (Promega, Mannheim, Germany). IC values are reported as absolute IC50 values, obtained for a test compound as the geometric mean of IC50 values over all cell lines tested.
The cell lines used were LXFL 1674L (established from patient-derived xenograft at Charles River Discovery Research Services Germany GmbH), SW-620 (kindly provided by the NCI, Bethesda, Md., USA), CAL-27 (purchased from DSMZ, Deutsche Sammlung von Mikroorganismen und Zellkulturen, Braunschweig, Germany), RKO, MDA-MB-468, and SK-OV-3 (from ATCC, American Type Culture Collection, Rockville, Md., USA). Authenticity of all cell lines was proven at the DSMZ by STR (short tandem repeat) analysis, a PCR based DNA-fingerprinting methodology. Cell lines were routinely passaged once or twice weekly and maintained in culture for up to 20 passages. Cells were grown at 37° C. in a humidified atmosphere with 5% CO2 in RPMI 1640 medium (25 mM HEPES, with L-glutamine, Biochrom, Berlin, Germany) supplemented with 10% (v/v) fetal calf serum (Sigma-Aldrich, Taufkirchen, Germany) and 0.1 mg/mL gentamicin (Life Technologies, Karlsruhe, Germany). The CellTiter-Blue® Cell Viability Assay was used according to manufacturer's instructions. Briefly, cells were harvested from exponential phase cultures, counted and plated in 96-well flat-bottom microtiter plates at a cell density of 4,000-10,000 cells/well depending on the cell line's growth rate. After a 24 h recovery period to allow the cells to resume exponential growth, 10 μL of culture medium (six control wells/plate) or of culture medium with test compound were added. The compounds were applied at 10 concentrations in triplicate in half-log increments up to 100 nM and cells were treated continuously for 96 h. […] Following an incubation period of up to 4 h, fluorescence (FU) was measured by using the Enspire Multimode Plate Reader (excitation λ=531 nm, emission λ=615 nm). IC50 values were determined with GraphPad Prism bioanalytic software (San Diego, Calif., USA).

[2] = pH-dependent release of free drug from human serum albumin conjugates; type: physicochemical; conditions: upon changing the pH from 7.4 to 4.1, 37° C., up to 24 hours
Procedure: The albumin-binding auristatin-Sulf07 derivatives were prepared as 2 mM stock solutions in anhydrous DMSO.
Release at pH 7.4: 442.4 μL of 1000 μM of reduced human serum albumin (881 μM free cysteine-34) and 727.6 μL PBS Buffer (4 mM sodium phosphate pH 7.4 and 150 mM NaCl) were added to a sealed HPLC vial and incubated at 37° C. for 30 minutes. After 30 minutes incubation 130 μL of the appropriate DMSO drug stock solution was added to the pre-incubated vial to produce a 200 μM solution of auristatin drug and a 300 μM solution of albumin (free cysteine-34). The mixture was allowed to react for 10 minutes at 37° C. and then analyzed by HPLC (method 7, 20 μL injection). Injections were repeated after 1 hour and then every hour up to 24 hours.
Release at pH 4.1: 408.5 μL of 1000 μM of reduced human serum albumin (881 μM free cysteine-34) and 539.4 μL of water were added to a sealed HPLC vial and incubated at 37° C. for 30 minutes. In a separate vial 190 μL sodium acetate buffer 50 mM pH 3.0 and 24.7 μL 1 M HCl were incubated at 37° C. for 30 minutes. […] The resulting solution was analyzed directly by HPLC (method 7). […]
The percentage of released free drug was determined by HPLC with a calibration curve (200 μM, 100 μM, 50 μM, 25 μM and 12.5 μM) for the free drugs i.e. AE-Keto for AE-Keto-Sulf07 and AE-Ester for AE-Ester-Sulf07. […]

[3] = Reconstitution stability (maleimide hydrolysis, loss of API) in reconstitution buffer; type: physicochemical; conditions: after 4 hours incubation at room temperature in reconstitution buffer (50 mM sodium phosphate pH 7.65 containing 4% HPβCD and 5% sucrose)
Procedure: (§1) The albumin-binding AE-Keto drug derivatives were reconstituted in 50 mM sodium phosphate buffer pH 7.6 which contained 5% sucrose (w/v) and 2% 2-hydroxypropyl-β-cyclodextrin (2-HPβCD). Both drugs were reconstituted at a concentration of 1277 μM (equal to 4.5 mg/kg murine xenograft dose), the dissolution of both drugs was confirmed by HPLC (method 2, 254 nm). Stability of the reconstituted drugs was monitored by HPLC at room temperature every 15 minutes over a period of 240 minutes for maleimide hydrolysis and loss of API.
as §1, with “AE-Ester” for “AE-Keto drug”, “4% 2-HPβCD.” for “2% 2-hydroxypropyl-β-cyclodextrin (2-HPβCD).”, “655” for “1277”, “2.4” for “4.5”, “310” for “254”

[4] = Homo sapiens, 96 h, read-out: Geometric mean IC50, geometric mean over six cell lines, 96 h treatment

| Structure (SMILES) | IC50 [1, 4] [nM] | IC50 ([1]; read-out: Geometric mean IC50, geometric mean over six cell lines, 96 h treatment) [nM] | percent of free drug released from albumin conjugate [2] | maleimide hydrolyzed [3] [%] |
| --- | --- | --- | --- | --- |
| CC[C@H](C)[C@@H]([C@@H](CC(=O)N1CCC[C@H]1[C@H](OC)[C@@H](C)C(=O)N[C@H](C)[C@@H](OC(=O)c1ccc(C(C)=O)cc1)c1ccccc1)OC)N(C)C(=O)[C@@H](NC(=O)[C@H](C(C)C)N(C)C)C(C)C (stereo in doubt) [AE-Ester, (1S,2R)-2-((3R)-3-((S)-1-((3R,4S,5R)-4-((S)-2-((S)-2-(dimethylamino)-3-methylbutanamido)-N,3-dimethylbutanamido)-3-methoxy-5-methylheptanoyl)pyrrolidin-2-yl)-3-methoxy-2-methylpropanamido)-1-phenylpropyl 4-acetylbenzoate] | 0.339 | 0.399 ± 0.00019 | higher than the percent of AE-Keto released |  |
| CC[C@H](C)[C@@H]([C@@H](CC(=O)N1CCC[C@H]1[C@H](OC)[C@@H](C)C(=O)N[C@H](C)[C@@H](OC(=O)c1ccc(C(C)=NNC(=O)CCCCCN2C(=O)C=CC2=O)cc1)c1ccccc1)OC)N(C)C(=O)[C@@H](NC(=O)[C@H](C(C)C)N(C)C)C(C)C [AE-Ester-EMCH, reference compound] |  |  |  | 11.0 |
| CC[C@H](C)[C@@H]([C@@H](CC(=O)N1CCC[C@H]1[C@H](OC)[C@@H](C)C(=O)N[C@H](C)C(=O)c1ccccc1)OC)N(C)C(=O)[C@@H](NC(=O)[C@H](C(C)C)N(C)C)C(C)C [AE-Keto, (S)-1-(((S)-1-(((3R,4S,5S)-3-methoxy-1-((S)-2-((1R,2R)-1-methoxy-2-methyl-3-oxo-3-(((R)-1-oxo-1-phenylpropan-2-yl)amino)propyl)pyrrolidin-1-yl)-5-methyl-1-oxoheptan-4-yl)(methyl)amino)-3-methyl-1-oxobutan-2-yl)amino)-N,N,3-trimethyl-1-oxobutan-2-aminium 2,2,2-trifluoroacetate] | 0.259 |  |  |  |
| CC[C@H](C)[C@@H]([C@@H](CC(=O)N1CCC[C@H]1[C@H](OC)[C@@H](C)C(=O)N[C@H](C)C(=NNC(=O)CCCCCN1C(=O)C=CC1=O)c1ccccc1)OC)N(C)C(=O)[C@@H](NC(=O)[C@H](C(C)C)N(C)C)C(C)C [AE-Keto-EMCH, reference compound] |  |  |  | 5.4 |

From patent US11377473B2, “Albumin-binding prodrugs of auristatin E derivatives” (priority 2017, dated 2022)
